Laboratory results reported in paper doi:10.1101/2024.08.14.606984v2 (biorxiv, 2024).

Biological target: GCN2 (Homo sapiens, UniProt Q9P2K8)
Assay: SPR, steady state
Type: binding

GCN2, sequence (Q9P2K8 whole entry): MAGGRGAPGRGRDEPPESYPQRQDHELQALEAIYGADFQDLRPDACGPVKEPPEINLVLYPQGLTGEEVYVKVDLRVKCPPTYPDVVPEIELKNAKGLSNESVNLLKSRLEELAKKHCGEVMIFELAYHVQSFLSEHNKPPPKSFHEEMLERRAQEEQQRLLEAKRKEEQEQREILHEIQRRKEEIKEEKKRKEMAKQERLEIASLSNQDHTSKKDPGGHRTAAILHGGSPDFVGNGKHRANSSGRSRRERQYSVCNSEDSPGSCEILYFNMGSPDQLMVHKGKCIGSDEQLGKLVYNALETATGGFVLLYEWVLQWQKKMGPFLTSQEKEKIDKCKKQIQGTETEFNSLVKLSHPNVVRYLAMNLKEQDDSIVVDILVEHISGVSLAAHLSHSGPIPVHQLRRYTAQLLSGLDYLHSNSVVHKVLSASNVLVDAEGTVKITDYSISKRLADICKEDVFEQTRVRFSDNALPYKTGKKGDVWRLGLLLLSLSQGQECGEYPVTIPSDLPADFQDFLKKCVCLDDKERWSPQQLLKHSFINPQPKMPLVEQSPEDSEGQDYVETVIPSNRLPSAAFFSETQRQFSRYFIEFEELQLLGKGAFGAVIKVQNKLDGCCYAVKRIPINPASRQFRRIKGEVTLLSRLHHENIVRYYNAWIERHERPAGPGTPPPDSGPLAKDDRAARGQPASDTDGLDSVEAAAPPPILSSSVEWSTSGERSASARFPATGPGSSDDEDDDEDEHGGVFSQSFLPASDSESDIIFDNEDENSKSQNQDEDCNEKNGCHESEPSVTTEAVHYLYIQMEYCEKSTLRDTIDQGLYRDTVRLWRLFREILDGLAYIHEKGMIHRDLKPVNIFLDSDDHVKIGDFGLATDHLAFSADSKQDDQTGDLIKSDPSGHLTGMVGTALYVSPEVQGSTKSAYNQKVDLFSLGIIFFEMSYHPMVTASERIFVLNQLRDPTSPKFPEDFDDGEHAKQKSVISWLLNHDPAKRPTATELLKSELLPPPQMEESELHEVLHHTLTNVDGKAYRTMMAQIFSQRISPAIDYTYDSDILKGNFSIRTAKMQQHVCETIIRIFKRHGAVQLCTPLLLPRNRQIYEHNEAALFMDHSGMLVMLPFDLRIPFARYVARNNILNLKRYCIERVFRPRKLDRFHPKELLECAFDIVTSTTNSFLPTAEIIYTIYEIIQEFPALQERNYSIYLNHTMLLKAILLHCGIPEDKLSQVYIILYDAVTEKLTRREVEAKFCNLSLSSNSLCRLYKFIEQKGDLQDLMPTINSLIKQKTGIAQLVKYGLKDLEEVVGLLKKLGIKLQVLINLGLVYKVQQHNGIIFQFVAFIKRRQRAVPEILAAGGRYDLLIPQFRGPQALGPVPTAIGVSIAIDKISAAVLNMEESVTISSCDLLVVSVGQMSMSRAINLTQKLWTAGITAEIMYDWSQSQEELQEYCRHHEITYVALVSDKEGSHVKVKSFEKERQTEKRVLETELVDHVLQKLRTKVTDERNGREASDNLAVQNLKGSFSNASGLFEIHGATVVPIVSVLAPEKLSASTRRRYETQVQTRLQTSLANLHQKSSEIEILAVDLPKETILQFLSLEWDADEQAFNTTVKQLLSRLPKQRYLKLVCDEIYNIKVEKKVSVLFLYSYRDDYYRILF

CNc1ncc2cc(-c3cc(NC(=O)NCCC(C)(C)C)c(F)cc3C)c(C)nc2n1 [LY-3009120]
Kd: 43.1 ± 2.5 µM
